Where “and” joins values, the source holds several entries; their conditions need not be identical. Equal entries are not always repeated.
Assay: solvent given as SMILES

[O-]c1ccccc1/C=N/c1ccccc1/N=C/c1ccccc1[O-]
fluorescence lifetime (in C1CCOC1): 0.0036 ns

CCCCn1c2ccccc2c2c1c1c3ccccc3n(CCCC)c1c1c3ccccc3n(CCCC)c21
fluorescence lifetime (in C1CCOC1): 6 ns

N#Cc1cnc(-c2c3ccccc3c(-c3ccccc3)c3ccccc23)nc1
fluorescence lifetime (in CCO): 0.25 ns | fluorescence lifetime (in ClCCl): 0.4 ns

Cc1cc(-c2ccc(-c3ccccc3)cc2)cc(C)[o+]1
fluorescence lifetime (in ClCCl): 3.4 ns

Cc1cc(-c2ccccc2C)cc(C)[o+]1
fluorescence lifetime (in CC#N): 12.2 ns | fluorescence lifetime (in ClCCl): 4.6 ns

N#C/C(=C\c1ccc(C(F)(F)F)cc1)c1nc(-c2ccc(Cl)cc2)cs1
fluorescence lifetime (in CC#N): 1.2 ns

O=c1cc(C(F)(F)F)c2cc3c4c(c2o1)CCCN4CCC3
fluorescence lifetime (in C1CCCCC1): 4.3 ns | fluorescence lifetime (in CC#N): 5.6 ns | fluorescence lifetime (in CCC#N): 6.55 ns | fluorescence lifetime (in CCCCCCCl): 5.72 ns | fluorescence lifetime (in CCCCl): 5.78 ns | fluorescence lifetime (in CCO): 3.4 ns and 4.56 ns | fluorescence lifetime (in CCOC(C)=O): 5.4 ns | fluorescence lifetime (in OCC(F)(F)F): 3.97 ns | fluorescence lifetime (in OCC(O)CO): 3.5 ns

CN(C)c1ccc(/C=C/c2ccc(-c3ccc(/C=C/c4ccc(N(C)C)cc4)s3)s2)cc1
fluorescence lifetime (in C1CCOC1): 1.08 ns | fluorescence lifetime (in CC#N): 1.12 ns | fluorescence lifetime (in CC(C)=O): 1.11 ns | fluorescence lifetime (in CN(C)C=O): 1.15 ns | fluorescence lifetime (in Cc1ccccc1): 1.03 ns

Nc1ccc2c(c1)C(=O)NC2=O
fluorescence lifetime (in C1CCOC1): 12.4 ns and 20.8 ns | fluorescence lifetime (in C1COCCO1): 15 ns | fluorescence lifetime (in CC#N): 14 ns | fluorescence lifetime (in CCO): 10 ns | fluorescence lifetime (in CN(C)C=O): 22 ns

C[Si](C)(C)C#Cc1cc2ccc3cc(C#C[Si](C)(C)C)cc4ccc(c1)c2c34
fluorescence lifetime (in Cc1ccccc1): 99 ns

COCCOCCOCCOCC(COCCOCCOCCOC)Oc1cc(/C=C/c2ccc(/C=C(\C#N)c3ccc(C(F)(F)F)cc3)cc2)c(OC(COCCOCCOCCOC)COCCOCCOCCOC)cc1/C=C/c1ccc(/C=C(\C#N)c2ccc(C(F)(F)F)cc2)cc1
fluorescence lifetime (in ClCCl): 1.6 ns

Nc1cccnc1
fluorescence lifetime (in C1CCCCC1): 26.5 ns | fluorescence lifetime (in CC#N): 4.6 ns | fluorescence lifetime (in CCO): 6.5 ns | fluorescence lifetime (in CCOCC): 7.7 ns | fluorescence lifetime (in O): 21.1 ns

CCCCn1c2ccc(C#N)cc2c2cc(C#N)cc(-c3ccc(N(c4ccccc4)c4ccccc4)cc3)c21
fluorescence lifetime (in ClCCl): 1.91 ns

Cc1ccc2c(c1)C(c1ccccc1)(c1ccccc1)c1cc(C)ccc1N2c1cc(C(C)C)c(B2c3ccccc3Sc3ccccc32)c(C(C)C)c1
fluorescence lifetime (in Cc1ccccc1): 47 ns | fluorescence lifetime (in O=P(c1ccccc1)(c1ccccc1)c1ccc2oc3ccc(P(=O)(c4ccccc4)c4ccccc4)cc3c2c1): 21 ns

Cc1cc(C)n2c1C=C1c3ccccc3C(c3cccn3C)=[N+]1[B-]2(F)F
fluorescence lifetime (in ClCCl): 6.91 ns

Nc1cccc[nH+]1
fluorescence lifetime (in O): 11.2 ns

CC(C)(C)c1ccc2c(c1)c1cc(C(C)(C)C)ccc1n2-c1ccc(-n2c3ccc(C(C)(C)C)cc3c3cc(C(C)(C)C)ccc32)c(-c2nccnc2C#N)c1
fluorescence lifetime (in c1cc(-n2c3ccccc3c3ccccc32)cc(-n2c3ccccc3c3ccccc32)c1): 7.2 ns

COC(=O)c1ccc(C#Cc2ccccc2)cc1
fluorescence lifetime (in C1CCCCC1): 0.59 ns | fluorescence lifetime (in CC#N): 0.52 ns | fluorescence lifetime (in CC(C)O): 0.64 ns | fluorescence lifetime (in CCCCCC): 0.55 ns | fluorescence lifetime (in CCCCCCCCCCCCCCCC): 0.55 ns | fluorescence lifetime (in CCCCCCCCCCCCCCCCCl): 0.59 ns | fluorescence lifetime (in CO): 0.62 ns

CCCCc1cc(-c2cccc(COC)c2)oc1-c1cccc(-c2oc(-c3cccc(COC)c3)cc2CCCC)c1
fluorescence lifetime (in ClC(Cl)Cl): 1.4 ns

Cc1cc(C(F)(F)F)nc2c1ccc1nc(-c3ccc(F)c(F)c3)cn12
fluorescence lifetime (in CC#N): 8.58 ns | fluorescence lifetime (in CCCCOC(C)=O): 7.28 ns | fluorescence lifetime (in CCOC(C)=O): 7.26 ns | fluorescence lifetime (in CO): 8.3 ns | fluorescence lifetime (in c1ccccc1): 6.69 ns

CCCCCCCCCCCCOc1cc2cc(N(C)C)ccc2cc1C=O
fluorescence lifetime (in ClCCl): 4.5 ns

CCC1(CC)c2ccccc2-c2c1c1c(c3c2C(CC)(CC)c2cc(-c4cccs4)ccc2-3)C(CC)(CC)c2cc(N(c3ccccc3)c3ccccc3)ccc2-1
fluorescence lifetime (in C1CCOC1): 1.7 ns

CC(C)(C)c1ccc2c(c1)B1c3cc(C(C)(C)C)ccc3Oc3cc(-n4c5ccccc5c5c6c(c7ccccc7n6-c6ccccc6)c6c(c7ccccc7n6-c6ccccc6)c54)cc(c31)O2
fluorescence lifetime (in Cc1ccccc1): 19.6 ns

COc1ccc(C2=C3C(C)=CC(C)=[N+]3[B-](F)(F)n3c(C)cc(C)c32)cc1
fluorescence lifetime (in Cc1ccccc1): 4.86 ns

Oc1ccccc1
fluorescence lifetime (in C1CCCCC1): 2.5 ns

Cc1ccc2c(c1)C(=O)c1ccncc1-2
fluorescence lifetime (in CC#N): 5.3 ns | fluorescence lifetime (in CCOC(C)=O): 7.4 ns | fluorescence lifetime (in Cc1ccccc1): 6.6 ns | fluorescence lifetime (in ClCCl): 5.9 ns

O=P1(c2ccccc2)C(c2ccc(C(F)(F)F)cc2)=Cc2cc3ccccc3cc21 (stereo not drawn)
fluorescence lifetime (in ClCCl): 3 ns

c1ccc(-c2nc(-c3ccccc3)nc(-c3ccc(-n4c5ccccc5c5cc6c(cc54)C4c5ccccc5C6c5ccccc54)cc3)n2)cc1
fluorescence lifetime (in O=P(c1ccccc1)(c1ccccc1)c1ccccc1Oc1ccccc1P(=O)(c1ccccc1)c1ccccc1): 9 ns

CC1=[N+]2C(=C(Oc3ccc4c(c3)CC[C@@H]3[C@@H]4CC[C@]4(C)C(=O)CC[C@@H]34)c3ccc(C)n3[B-]2(F)F)C=C1c1cc2n(c1)[B-](F)(F)[N+]1=CC=CC1=C2c1c(C)cc(C)cc1C
fluorescence lifetime (in C1CCCCC1): 2.7 ns | fluorescence lifetime (in CCOC(C)=O): 0.911 ns

ClP1(Cl)=NP(Cl)(Cl)=NP(Cl)(Oc2ccc3ccc4cccc5ccc2c3c45)=N1 (stereo not drawn)
fluorescence lifetime (in ClCCl): 3.29 ns

CCN(CC)c1ccc2c(-c3ccc(S(=O)(=O)[O-])cc3S(=O)(=O)[O-])c3ccc(=[N+](CC)CC)cc-3oc2c1
fluorescence lifetime (in CC#N): 2.46 ns | fluorescence lifetime (in CCO): 2.96 ns | fluorescence lifetime (in CN(C)C=O): 2.84 ns | fluorescence lifetime (in O): 1.49 ns

c1ccc(C2=C3c4ccccc4C4=[N+]3[B-]3(Oc5ccccc54)Oc4ccccc4-c4c5ccccc5c2n43)cc1 (stereo not drawn)
fluorescence lifetime (in ClCCl): 7 ns

Cc1c(C(=O)c2ccc(C(F)(F)F)cc2)c2ccc3cccc4c5cccc6ccc1c(c65)c2c34
fluorescence lifetime (in ClCCl): 1.39 ns

CCCCn1c(-c2ccc(-c3nnc(-c4ccc5ccccc5c4)o3)cc2)nc(-c2ccccc2)c1-c1ccccc1
fluorescence lifetime (in ClCCl): 1.74 ns

CCCCCCCCCCn1nnc(-c2ccc(C#Cc3ccc(C#Cc4ccc(-c5nnn(CCCCCCCCCC)n5)cc4)c4nc5c6ccccc6c6ccccc6c5nc34)cc2)n1
fluorescence lifetime (in C1CCOC1): 3.66 ns | fluorescence lifetime (in Cc1ccccc1): 2.52 ns | fluorescence lifetime (in ClCCl): 4.8 ns

O=c1oc2ccccc2cc1/C=C/c1ccccc1
fluorescence lifetime (in CC#N): 2.48 ns

N#Cc1ccc(/C=C/c2c3ccccc3cc3ccccc23)cc1
fluorescence lifetime (in C1CCOC1): 0.82 ns | fluorescence lifetime (in CC1CCCCC1): 3.01 ns | fluorescence lifetime (in CC#N): 0.68 ns | fluorescence lifetime (in CO): 0.6 ns | fluorescence lifetime (in Cc1ccccc1): 2.12 ns | fluorescence lifetime (in ClC(Cl)Cl): 0.82 ns

Cn1c2ccccc2c(=O)c2ccccc21
fluorescence lifetime (in CS(C)=O): 8.85 ns

CC(C)c1cccc(C(C)C)c1N1C(=O)c2cccc3c(Oc4ccc(C(C)(C)C)cc4)ccc(c23)C1=O
fluorescence lifetime (in ClCCl): 1.12 ns

O=c1[nH]cc(F)c(=O)[nH]1
fluorescence lifetime (in CC#N): 0.0004 ns

COc1ccc(C#Cc2ccc(C#Cc3ccc(P(=O)(c4ccc(C#Cc5ccc(C#Cc6ccc(OC)cc6)cc5)cc4)c4ccc(C#Cc5ccc(C#Cc6ccc(OC)cc6)cc5)cc4)cc3)cc2)cc1
fluorescence lifetime (in C1CCCCC1): 0.58 ns | fluorescence lifetime (in C1COCCO1): 0.69 ns | fluorescence lifetime (in CC#N): 1.14 ns | fluorescence lifetime (in CCO): 1.02 ns | fluorescence lifetime (in CS(C)=O): 1.24 ns | fluorescence lifetime (in ClC(Cl)Cl): 0.74 ns | fluorescence lifetime (in ClCCl): 0.85 ns

C#CCN1C(=O)/C(=C/c2cc(OC(C)C)ccc2OC(C)C)N=C1C
fluorescence lifetime (in C1COCCO1): 1.66 ns | fluorescence lifetime (in CC#N): 2.22 ns | fluorescence lifetime (in CC(C)=O): 2.17 ns | fluorescence lifetime (in CCCCCC): 0.89 ns | fluorescence lifetime (in CCCCO): 0.82 ns | fluorescence lifetime (in CCCO): 0.85 ns | fluorescence lifetime (in CCO): 1 ns | fluorescence lifetime (in CCOC(C)=O): 1.5 ns | fluorescence lifetime (in CN(C)C=O): 2.62 ns | fluorescence lifetime (in CO): 1.1 ns | fluorescence lifetime (in CS(C)=O): 3.03 ns

CCOC(=O)C1CC(c2c(C#N)c(C)nn2-c2ccccc2)=CN1c1ccc(Br)cc1 (stereo not drawn)
fluorescence lifetime (in C1CCOC1): 5.02 ns | fluorescence lifetime (in C1COCCO1): 5.29 ns | fluorescence lifetime (in CC#N): 4.91 ns | fluorescence lifetime (in CCCCCCC): 4.54 ns | fluorescence lifetime (in CCO): 3.66 ns | fluorescence lifetime (in O): 4.2 ns | fluorescence lifetime (in OCC(O)CO): 2.17 ns | fluorescence lifetime (in OCCO): 2.8 ns

From the Deep4Chem optical property database
